Experiment: Adverse events during switch from oral to i.v. selexipag and back in subjects with stable PAH (Phase 3 study)
Type: in vivo, human
Settings: for AE incidence: Blindness unilateral / AE incidence: Chromaturia / AE incidence: Cough / AE incidence: Dyspnoea / AE incidence: Flushing / AE incidence: Headache / AE incidence: Hypokalaemia / AE incidence: Nasopharyngitis / AE incidence: Nausea / AE incidence: Oedema peripheral / AE incidence: Rhegmatogenous retinal detachment / AE incidence: Right ventricular failure / AE incidence: Upper respiratory tract infection / Subjects with at least one AE: Period 3 + follow-up (oral selexipag, up to 37 days)
Experimental: This was a prospective, multicenter, open-label, single-sequence, cross-over, Phase 3 study. Based on the dose of selexipag received at study entry, subjects were allocated to one of the following groups, selexipag 200-1000 μg b.i.d. or selexipag 1200-1600 μg b.i.d. See, FIG. 1. The study comprised the following periods:
(ii) Treatment and observation period: The treatment and observation period included the following consecutive periods: • Period 1 included oral selexipag pre-treatment period for 1 day, in-hospital. This period started with intake of the morning dose of oral selexipag on Day 1 at Visit 2 and ended the following day, before initiation of the first infusion of i.v. selexipag. • Period 2 included i.v. selexipag treatment period for 36 hours [3 infusions], in-hospital. This period started in the morning of Day 2 at Visit 2 with the start of the first infusion of i.v. selexipag and ended in the evening of Day 3 at Visit 2 before the evening administration of oral selexipag. Administration of oral selexipag was interrupted during the i.v. selexipag treatment period. • Period 3 included oral selexipag post-treatment period for 7 to 11 day. This period started in the evening of Day 3 at Visit 2 with the administration of oral selexipag and ended 7-11 days later, at Visit 3.
The endpoints analyzed for Period 1, Period 2, and Period 3 and follow-up period combined included discontinuations due to prostacyclin-associated AEs, adverse events (AEs) and serious adverse events (SAEs), prostacyclin-associated AEs, AEs related to injection site reactions, and PAH-related AEs.
The endpoints analyzed for (i) Period 1, Period 2, and Period 3 and follow-up period combined (ii) Period 1 and Period 2 combined, and (iii) Period 2 and Period 3 combined included discontinuations due to prostacyclin-associated AEs, discontinuations due to any AEs, AEs and SAEs, prostacyclin-associated AEs, PAH-related AEs, change from baseline in vital signs (systolic blood pressure [SBP], diastolic blood pressure [DBP], and pulse rate) and body weight, ECG abnormalities, marked laboratory abnormalities, and change from baseline in WHO FC.
The statistical analysis was mainly descriptive, without formal hypothesis testing. Exact Pearson-Clopper CIs for the incidence of AEs were computed.

[1] = Period 2 (intravenous selexipag treatment), high dose cohort (1200-1600 μg), N = 12
[2] = Period 2 (intravenous selexipag treatment), low dose cohort (200-1000 μg), N = 8
[3] = Period 2 (intravenous selexipag treatment), total, N = 20
[4] = Period 2 (iv selexipag), total, N = 20
[5] = Period 3 (oral selexipag), high dose cohort (1200-1600 μg), N = 12
[6] = Period 3 (oral selexipag), low dose cohort (200-1000 μg), N = 8
[7] = Period 3 (oral selexipag), total, N = 20
[8] = Period 3 + Follow-up (oral selexipag), total, N = 20
[9] = high dose cohort (1200-1600 μg), N = 12
[10] = low dose cohort (200-1000 μg), N = 8

CC(C)N(CCCCOCC(=O)NS(C)(=O)=O)c1cnc(-c2ccccc2)c(-c2ccccc2)n1 [selexipag, 2-{4-[(5,6-diphenylpyrazin-2-yl)(propan-2-yl)amino]butoxy}-N-(methanesulfonyl)acetamide]
Prostacyclin-associated AE incidence: Vomiting [1]: 1 n (%) | Subjects with at least one prostacyclin-associated AE [1]: 6 n (%) | Prostacyclin-associated AE incidence: Diarrhoea [2]: 0 n (%) | Prostacyclin-associated AE incidence: Flushing [2]: 0 n (%) | Prostacyclin-associated AE incidence: Headache [2]: 1 (12.5) n (%) | Prostacyclin-associated AE incidence: Myalgia [2]: 0 n (%) | Prostacyclin-associated AE incidence: Nausea [2]: 0 n (%) | Prostacyclin-associated AE incidence: Pain in jaw [2]: 0 n (%) | Prostacyclin-associated AE incidence: Tension headache [2]: 0 n (%) | Prostacyclin-associated AE incidence: Vomiting [2]: 0 n (%) | Subjects with at least one prostacyclin-associated AE [2]: 1 (12.5) n (%) | Prostacyclin-associated AE incidence: Diarrhoea [3]: 1 n (%) | Prostacyclin-associated AE incidence: Flushing [3]: 1 n (%) | Prostacyclin-associated AE incidence: Headache [3]: 4 n (%) | Prostacyclin-associated AE incidence: Myalgia [3]: 1 n (%) | Prostacyclin-associated AE incidence: Nausea [3]: 1 n (%) | Prostacyclin-associated AE incidence: Pain in jaw [3]: 1 n (%) | Prostacyclin-associated AE incidence: Tension headache [3]: 1 n (%) | Prostacyclin-associated AE incidence: Vomiting [3]: 1 n (%) | Deaths [4]: 0 n (%) | Discontinuations due to prostacyclin-associated AEs [4]: 0 n (%) | Number of subjects with at least one Injection site reaction-AE (ISR-AE) [4]: 2 n (%) | Number of subjects with at least one Prostacyclin-associated AEs [4]: 7 n (%) | Number of subjects with at least one Serious adverse events (SAEs) [4]: 0 n (%) | SAE incidence: Blindness unilateral [4]: 0 n (%) | SAE incidence: Rhegmatogenous retinal detachment [4]: 0 n (%) | SAE incidence: Right ventricular failure [4]: 0 n (%) | PAH-related AE: peripheral edema (Period 3): 2 subjects | PAH-related AE: right ventricular failure in the context of respiratory tract infection (Period 3): 1 subject | subjects with PAH-related AEs (Period 3): 3 subjects | SAE incidence: Right ventricular failure (Period 3 (oral selexipag) + Follow-up, total, N = 20): 1 n (%) | Prostacyclin-associated AE incidence: Flushing [5]: 1 n (%) | Prostacyclin-associated AE incidence: Headache [5]: 1 n (%) | Prostacyclin-associated AE incidence: Nausea [5]: 1 n (%) | Prostacyclin-associated AE incidence: Flushing [6]: 0 n (%) | Prostacyclin-associated AE incidence: Headache [6]: 0 n (%) | Prostacyclin-associated AE incidence: Nausea [6]: 0 n (%) | Prostacyclin-associated AE incidence: Flushing [7]: 1 n (%) | Prostacyclin-associated AE incidence: Headache [7]: 1 n (%) | Prostacyclin-associated AE incidence: Nausea [7]: 1 n (%) | Deaths [8]: 0 n (%) | Discontinuations due to prostacyclin-associated AEs [8]: 0 n (%) | Number of subjects with at least one Injection site reaction-AE (ISR-AE) [8]: 0 n (%) | Number of subjects with at least one Prostacyclin-associated AEs [8]: 1 n (%) | Number of subjects with at least one Serious adverse events (SAEs) [8]: 2 n (%) | AE incidence: Blindness unilateral [9]: 1 n (%) | AE incidence: Chromaturia [9]: 1 n (%) | AE incidence: Cough [9]: 1 n (%) | AE incidence: Dyspnoea [9]: 1 n (%) | AE incidence: Flushing [9]: 1 n (%) | AE incidence: Headache [9]: 1 n (%) | AE incidence: Hypokalaemia [9]: 1 n (%) | AE incidence: Nasopharyngitis [9]: 0 n (%) | AE incidence: Nausea [9]: 1 n (%) | AE incidence: Oedema peripheral [9]: 1 n (%) | AE incidence: Rhegmatogenous retinal detachment [9]: 1 n (%) | AE incidence: Right ventricular failure [9]: 1 n (%) | AE incidence: Upper respiratory tract infection [9]: 1 n (%) | Subjects with at least one AE [9]: 6 n (%) | AE incidence: Blindness unilateral [10]: 0 n (%) | AE incidence: Chromaturia [10]: 0 n (%) | AE incidence: Cough [10]: 0 n (%) | AE incidence: Dyspnoea [10]: 0 n (%) | AE incidence: Flushing [10]: 0 n (%) | AE incidence: Headache [10]: 0 n (%) | AE incidence: Hypokalaemia [10]: 0 n (%) | AE incidence: Nasopharyngitis [10]: 1 (12.5) n (%) | AE incidence: Nausea [10]: 0 n (%) | AE incidence: Oedema peripheral [10]: 1 (12.5) n (%) | AE incidence: Rhegmatogenous retinal detachment [10]: 0 n (%) | AE incidence: Right ventricular failure [10]: 0 n (%) | AE incidence: Upper respiratory tract infection [10]: 0 n (%) | Subjects with at least one AE [10]: 2 (25.0) n (%) | AE incidence: Blindness unilateral (total, N = 20): 1 n (%) | AE incidence: Chromaturia (total, N = 20): 1 n (%) | AE incidence: Cough (total, N = 20): 1 n (%) | AE incidence: Dyspnoea (total, N = 20): 1 n (%) | AE incidence: Flushing (total, N = 20): 1 n (%) | AE incidence: Headache (total, N = 20): 1 n (%) | AE incidence: Hypokalaemia (total, N = 20): 1 n (%) | AE incidence: Nasopharyngitis (total, N = 20): 1 n (%) | AE incidence: Nausea (total, N = 20): 1 n (%) | AE incidence: Oedema peripheral (total, N = 20): 2 n (%) | AE incidence: Rhegmatogenous retinal detachment (total, N = 20): 1 n (%) | AE incidence: Right ventricular failure (total, N = 20): 1 n (%) | AE incidence: Upper respiratory tract infection (total, N = 20): 1 n (%) | Subjects with at least one AE (total, N = 20): 8 n (%) | PAH-related AEs (Periods 1 and 2): No PAH-related AEs | AE profile during treatment with i.v. selexipag (conclusion): consistent with the known safety profile of selexipag | tolerability of the switch from oral selexipag (Period 1) to i.v. selexipag (Period 2) and back to oral selexipag (Period 3) (conclusion): well tolerated | Deaths (whole study): No subject died | discontinued study treatment due to an AE (whole study): No subject | prostacyclin-associated AEs reported as severe, serious, or resulting in discontinuation of study treatment (whole study): None
